From patent US10745361B2, “Piperazine derivatives having multimodal activity against pain” (ESTEVE PHARMACEUTICALS, S.A., priority 2013, dated 2020)

The compounds below were run on human σ1 receptor and human μ-opioid receptor (assay: Human σ1 receptor radioligand assay and human μ-opioid receptor radioligand assay (μ and σ1 dual binding)). Settings: one class for both Ki: σ1 ([3H](+)-pentazocine, transfected HEK-293 membranes) and μ-opioid ([3H]-DAMGO, transfected CHO-K1 membranes).
Set-up: key to μ and σ1 dual binding: +: Both Ki-μ and Ki-σ1>=500 nM; ++: One K, <500 nM while the other K, is >=500 nM; +++: Both Ki-μ and Ki-σ1<500 nM; ++++: Both Ki-μ and Ki-σ1<100 nM
Procedure: Human σ1 Receptor Radioligand Assay
To investigate binding properties of σ1 receptor ligands to human σ1 receptor, transfected HEK-293 membranes and [^3H](+)-pentazocine (Perkin Elmer, NET-1056), as the radioligand, were used. The assay was carried out with 7 μg of membrane suspension, 5 nM of [^3H](+)-pentazocine in either absence or presence of either buffer or 10 μM Haloperidol for total and non-specific binding, respectively. Binding buffer contained Tris-HCl 50 mM at pH 8. Plates were incubated at 37° C. for 120 minutes. After the incubation period, the reaction mix was then transferred to MultiScreen HTS, FC plates (Millipore), filtered and plates were washed 3 times with ice-cold 10 mM Tris-HCL (pH7.4). Filters were dried and counted at approximately 40% efficiency in a MicroBeta scintillation counter (Perkin-Elmer) using EcoScint liquid scintillation cocktail
Human μ-Opioid Receptor Radioligand Assay
To investigate binding properties of p-opioid receptor ligands to human p-opioid receptor, transfected CHO-K1 cell membranes and [^3H]-DAMGO (Perkin Elmer, ES-542-C), as the radioligand, were used. The assay was carried out with 20 μg of membrane suspension, 1 nM of [^3H]-DAMGO in either absence or presence of either buffer or 10 μM Naloxone for total and non-specific binding, respectively. Binding buffer contained Tris-HCl 50 mM, MgCl2 5 mM at pH 7.4. Plates were incubated at 27° C. for 60 minutes. After the incubation period, the reaction mix was then transferred to MultiScreen HTS, FC plates (Millipore), filtered and plates were washed 3 times with ice-cold 10 mM Tris-HCL (pH 7.4). Filters were dried and counted at approximately 40% efficiency in a MicroBeta scintillation counter (Perkin-Elmer) using
EcoScint liquid scintillation cocktail.
The following scale as been adopted for representing the binding to the σ1 receptor and the μ-opiod receptor expressed as Ki: • + Both Ki-μ and Ki-σ1>=500 nM • ++ One K, <500 nM while the other K, is >=500 nM • +++ Both Ki-μ and Ki-σ1<500 nM • ++++ Both Ki-μ and Ki-σ1<100 nM
With `CC(C)(C)NS(=O)(=O)c1cccc(N2CCN(Cc3cn(-c4ccccc4)nn3)CC2)c1` [Example 32, N-tert-butyl-3-(4-((1-phenyl-1H-1,2,3-triazol-4-yl)methyl)piperazin-1-yl)benzenesulfonamide] the “μ and σ1 dual binding” value was “++”. Work on `CS(=O)(=O)Nc1cccc(N2CCN(Cc3cnn(-c4ccccc4)c3)CC2)c1` [Example 33, N-(3-(4-((1-phenyl-1H-pyrazol-4-yl)methyl)piperazin-1-yl)phenyl)methanesulfonamide] yielded a Ki of less than 100 nM. `CS(=O)(=O)Nc1cccc(N2CCN(Cc3cnn(Cc4ccccc4)c3)CC2)c1` [Example 34, N-(3-(4-((1-benzyl-1H-pyrazol-4-yl)methyl)piperazin-1-yl)phenyl)methanesulfonamide] gave a Ki of less than 500 nM. `CS(=O)(=O)Nc1cccc(N2CCN(Cc3cnn(Cc4ccccn4)c3)CC2)c1` [Example 35, N-(3-(4-((1-(pyridin-2-ylmethyl)-1H-pyrazol-4-yl)methyl)piperazin-1-yl)phenyl)methanesulfonamide] was tested, and the “μ and σ1 dual binding” value was “++”. `CC(C)S(=O)(=O)Nc1cccc(N2CCN(Cc3cnn(-c4ccccc4)c3)CC2)c1` [Example 36, N-(3-(4-((1-phenyl-1H-pyrazol-4-yl)methyl)piperazin-1-yl)phenyl)propane-2-sulfonamide] showed a Ki of less than 100 nM. Work on `Oc1cccc(N2CCN(Cc3cnn(-c4ccccc4)c3)CC2)c1` [Example 37, 3-(4-((1-phenyl-1H-pyrazol-4-yl)methyl)piperazin-1-yl)phenol] yielded a Ki of less than 100 nM. `CS(=O)(=O)Nc1cccc(N2CCN(Cc3cnn(-c4ccccn4)c3)CC2)c1` [Example 38, N-(3-(4-((1-(pyridin-2-yl)-1H-pyrazol-4-yl)methyl)piperazin-1-yl)phenyl)methanesulfonamide] showed a Ki of less than 500 nM. Compound `CC(C)S(=O)(=O)Nc1cccc(N2CCN(Cc3cnn(-c4ccccn4)c3)CC2)c1` [Example 39, N-(3-(4-((1-(pyridin-2-yl)-1H-pyrazol-4-yl)methyl)piperazin-1-yl)phenyl)propane-2-sulfonamide] has a Ki of less than 100 nM. Compound `CC(C)S(=O)(=O)Nc1cccc(N2CCN(Cc3cn(Cc4ccccc4)cn3)CC2)c1` [Example 40, N-(3-(4-((1-benzyl-1H-imidazol-4-yl)methyl)piperazin-1-yl)phenyl)propane-2-sulfonamide] has a Ki of less than 500 nM. In the case of `CS(=O)(=O)Nc1cccc(N2CCN(Cc3cn(-c4ccccc4)nn3)CC2)n1` [Example 41, N-(6-(4-((1-phenyl-1H-1,2,3-triazol-4-yl)methyl)piperazin-1-yl)pyridin-2-yl)methanesulfonamide], the “μ and σ1 dual binding” value is reported as “++”. In the case of `CC(C)S(=O)(=O)Nc1cccc(N2CCN(Cc3cn(-c4ccccc4)nn3)CC2)n1` [Example 42, N-(6-(4-((1-phenyl-1H-1,2,3-triazol-4-yl)methyl)piperazin-1-yl)pyridin-2-yl)propane-2-sulfonamide], the Ki is reported as less than 500 nM. With `CC(C)S(=O)(=O)Nc1cccc(N2CCN(Cc3cn(-c4ccccc4F)nn3)CC2)n1` [Example 43, N-(6-(4-((1-(2-fluorophenyl)-1H-1,2,3-triazol-4-yl)methyl)piperazin-1-yl)pyridin-2-yl)propane-2-sulfonamide] the “μ and σ1 dual binding” value was “++”. Compound `O=S(=O)(Nc1cccc(N2CCN(Cc3cn(-c4ccccc4F)nn3)CC2)n1)C1CC1` [Example 44, N-(6-(4-((1-(2-fluorophenyl)-1H-1,2,3-triazol-4-yl)methyl)piperazin-1-yl)pyridin-2-yl)cyclopropanesulfonamide] has a Ki of less than 500 nM. With `CCC(=O)Nc1cccc(N2CCN(Cc3cn(-c4ccccc4F)nn3)CC2)n1` [Example 45, N-(6-(4-((1-(2-fluorophenyl)-1H-1,2,3-triazol-4-yl)methyl)piperazin-1-yl)pyridin-2-yl)propionamide] the “μ and σ1 dual binding” value was “++”. With `CC(C)S(=O)(=O)Nc1cccc(N2CCN(Cc3cn(-c4ccccc4O)nn3)CC2)n1` [Example 46, N-(6-(4-((1-(2-hydroxyphenyl)-1H-1,2,3-triazol-4-yl)methyl)piperazin-1-yl)pyridin-2-yl)propane-2-sulfonamide] the “μ and σ1 dual binding” value was “++”. `CC(C)S(=O)(=O)Nc1cccc(N2CCN(Cc3cnn(-c4ccccn4)c3)CC2)n1` [Example 47, N-(6-(4-((1-(pyridin-2-yl)-1H-pyrazol-4-yl)methyl)piperazin-1-yl)pyridin-2-yl)propane-2-sulfonamide] was tested, and the Ki was less than 500 nM. `CC(C)S(=O)(=O)Nc1cccc(N2CCN(Cc3cn(-c4c(F)cccc4F)nn3)CC2)n1` [Example 48, N-(6-(4-((1-(2,6-difluorophenyl)-1H-1,2,3-triazol-4-yl)methyl)piperazin-1-yl)pyridin-2-yl)propane-2-sulfonamide] was tested, and the “μ and σ1 dual binding” value was “++”. With `CC(C)S(=O)(=O)Nc1cccc(N2CCN(Cc3cn(-c4ccc(F)c(F)c4)nn3)CC2)n1` [Example 49, N-(6-(4-((1-(3,4-difluorophenyl)-1H-1,2,3-triazol-4-yl)methyl)piperazin-1-yl)pyridin-2-yl)propane-2-sulfonamide] the “μ and σ1 dual binding” value was “++”. For `CC(C)S(=O)(=O)Nc1cccc(N2CCN(Cc3cn(-c4ccc(Cl)cc4F)nn3)CC2)n1` [Example 50, N-(6-(4-((1-(4-chloro-2-fluorophenyl)-1H-1,2,3-triazol-4-yl)methyl)piperazin-1-yl)pyridin-2-yl)propane-2-sulfonamide], the “μ and σ1 dual binding” value was “++”. Work on `O=S(=O)(Nc1cccc(N2CCN(Cc3cn(-c4ccccc4)nn3)CC2)n1)C1CC1` [Example 51, N-(6-(4-((1-phenyl-1H-1,2,3-triazol-4-yl)methyl)piperazin-1-yl)pyridin-2-yl)cyclopropanesulfonamide] yielded a Ki of less than 500 nM. For `CC(C)S(=O)(=O)Nc1ccc(Cl)c(N2CCN(Cc3cn(-c4ccccc4)nn3)CC2)n1` [Example 52, N-(5-chloro-6-(4-((1-phenyl-1H-1,2,3-triazol-4-yl)methyl)piperazin-1-yl)pyridin-2-yl)propane-2-sulfonamide], the Ki was less than 500 nM. `CC(C)S(=O)(=O)Nc1cccc(N2CC3CN(Cc4cn(-c5ccccc5)nn4)CC3C2)n1` (centres unmarked) [Example 53, N-(6-(5-((1-phenyl-1H-1,2,3-triazol-4-yl)methyl)hexahydropyrrolo[3,4-c]pyrrol-2(1H)-yl)pyridin-2-yl)propane-2-sulfonamide] showed a Ki of less than 500 nM. For `CC(C)S(=O)(=O)Nc1cccc(N2CC3CN(Cc4cn(Cc5ccccc5)nn4)CC3C2)n1` (centres unmarked) [Example 54, N-(6-(5-((1-benzyl-1H-1,2,3-triazol-4-yl)methyl)hexahydropyrrolo[3,4-c]pyrrol-2(1H)-yl)pyridin-2-yl)propane-2-sulfonamide], the “μ and σ1 dual binding” value was “++”. For `CC(C)S(=O)(=O)Nc1cccc(N2CC3CN(Cc4cn(Cc5ccccn5)nn4)CC3C2)n1` (centres unmarked) [Example 55, N-(6-(5-((1-(pyridin-2-ylmethyl)-1H-1,2,3-triazol-4-yl)methyl)hexahydropyrrolo[3,4-c]pyrrol-2(1H)-yl)pyridin-2-yl)propane-2-sulfonamide], the “μ and σ1 dual binding” value was “++”. With `COc1cncc(-n2cc(CN3CCN(c4cccc(NS(=O)(=O)C(C)C)n4)CC3)nn2)c1` [Example 56, N-(6-(4-((1-(5-methoxypyridin-3-yl)-1H-1,2,3-triazol-4-yl)methyl)piperazin-1-yl)pyridin-2-yl)propane-2-sulfonamide] the “μ and σ1 dual binding” value was “++”. `CC(C)S(=O)(=O)Nc1cccc(N2CCCN(Cc3cn(-c4ccccc4)nn3)CC2)n1` [Example 57, N-(6-(4-((1-phenyl-1H-1,2,3-triazol-4-yl)methyl)-1,4-diazepan-1-yl)pyridin-2-yl)propane-2-sulfonamide] was tested, and the Ki was less than 100 nM. In the case of `CC(C)S(=O)(=O)Nc1cccc(N2CCN(Cc3cn(-c4ccc(Cl)cn4)nn3)CC2)n1` [Example 58, N-(6-(4-((1-(5-chloropyridin-2-yl)-1H-1,2,3-triazol-4-yl)methyl)piperazin-1-yl)pyridin-2-yl)propane-2-sulfonamide], the “μ and σ1 dual binding” value is reported as “++”. In the case of `CC(C)S(=O)(=O)Nc1cccc(N2CCCN(Cc3cn(Cc4ccccn4)nn3)CC2)n1` [Example 59, N-(6-(4-((1-(pyridin-2-ylmethyl)-1H-1,2,3-triazol-4-yl)methyl)-1,4-diazepan-1-yl)pyridin-2-yl)propane-2-sulfonamide], the “μ and σ1 dual binding” value is reported as “++”. `CC(C)S(=O)(=O)Nc1cccc(N2CCCN(Cc3cn(-c4ccccc4F)nn3)CC2)n1` [Example 60, N-(6-(4-((1-(2-fluorophenyl)-1H-1,2,3-triazol-4-yl)methyl)-1,4-diazepan-1-yl)pyridin-2-yl)propane-2-sulfonamide] showed a Ki of less than 500 nM.
